The structures appear in SMILES notation. pIC50: −log10 of the molar value. Bridge positions count the residues as written; N and C are the ends. Square brackets hold non-standard residues; d marks the D form. Peptide text beside a SMILES is read from it. * marks the point of attachment. ξ: configuration not given here. Phe(4-CH2NH2) = NCc1ccc(C[C@H](N)C(=O)O)cc1; Bip = N[C@@H](Cc1ccc(-c2ccccc2)cc1)C(=O)O; Phe(3-Me) = Cc1cccc(C[C@H](N)C(=O)O)c1; ξBip = NC(Cc1ccc(-c2ccccc2)cc1)C(=O)O; hArg = N=C(N)NCCCC[C@H](N)C(=O)O; Cha = N[C@@H](CC1CCCCC1)C(=O)O; Cit = NC(=O)NCCC[C@H](N)C(=O)O; aThr = C[C@H](O)[C@H](N)C(=O)O; Thr(3ξ) = CC(O)[C@H](N)C(=O)O; 12Ado = NCCCCCCCCCCCC(=O)O; Carboxymethyl = O=C(O)C*; Orn = NCCC[C@H](N)C(=O)O; Aun = NCCCCCCCCCCC(=O)O; Dab = NCC[C@H](N)C(=O)O; Nva = CCC[C@H](N)C(=O)O; Dap = NC[C@H](N)C(=O)O; ξD = NC(CC(=O)O)C(=O)O; AEEA = NCCOCCOCC(=O)O

T1 sequence (Q15116 25-288): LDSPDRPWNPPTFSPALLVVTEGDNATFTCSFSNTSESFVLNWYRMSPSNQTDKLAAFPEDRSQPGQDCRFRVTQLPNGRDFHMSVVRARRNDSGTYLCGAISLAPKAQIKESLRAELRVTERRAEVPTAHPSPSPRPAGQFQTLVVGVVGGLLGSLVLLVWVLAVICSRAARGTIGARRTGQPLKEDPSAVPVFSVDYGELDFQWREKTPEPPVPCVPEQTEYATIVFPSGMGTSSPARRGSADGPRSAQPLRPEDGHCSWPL

This experiment concerns the target T1, PD-1/PD-L1 interaction (PE-labeled human PD-L1-Ig binding to Jurkat cell line over-expressing human PD-1) (Homo sapiens, UniProt Q15116).
T1 construct: expressed in transfected cells; host or cells: Jurkat
Nature of the experiment: Jurkat-PD-1 Cell Binding High-Content Screening Assay (CBA). The class given is cell-based. To be noted: Jurkat cell line over-expressing human PD-1; PE-labeled PD-L1-Ig 20 nM final; read-out: Jurkat hPD1-PDL1 IC50. Put shortly: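 Human PD-L1-Ig carrying a covalent PE label on its Ig tag serves as the probe, applied at 20 nM final to compound-treated (2 h, 37° C) Jurkat-hPD-1 cells in medium with 10% fetal calf serum. After one hour, fixation and nuclear staining precede high-content image analysis.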
Consider `Cc1cccc(C[C@@H]2NC(=O)[C@H](CC(=O)O)NC(=O)[C@H](Cc3ccc(OCC(=O)O)cc3)NC(=O)[C@H](CCCCNC(=N)N)NC(=O)CSC[C@@H](C(=O)N[C@@H](CN)C(=O)N[C@@H](CCC(=O)O)C(=O)NCCCCCCCCCCCC(=O)O)NC(=O)[C@H](C(C)O)NC(=O)[C@H](C(C)C)NC(=O)[C@H](CC3CCCCC3)NC(=O)[C@H](CCN)NC(=O)[C@@H](CC(C)C)NC(=O)[C@H](CCCN)NC(=O)[C@H](CCCNC(N)=O)NC(=O)[C@H](Cc3ccc(-c4ccccc4)cc3)NC(=O)[C@H](C(C)C)NC2=O)c1` (stereo partly drawn) [Compound 3188] ({CH2CO}-[hArg]Y(Carboxymethyl)D[Phe(3-Me)]V[Bip][Cit][Orn][dL][Dab][Cha]V[Thr(3ξ)]C[Dap]E[12Ado]-OH; thioether N-14), for which the pIC50 (in general, the negative decadic logarithm of the IC50, by convention in mol/L) was 6.52.

Turning to `Cc1cccc(C[C@@H]2NC(=O)[C@H](CC(=O)O)NC(=O)[C@H](Cc3ccc(OCC(=O)O)cc3)NC(=O)[C@H](CN)NC(=O)CSC[C@@H](C(=O)N[C@@H](C)C(=O)N[C@@H](CC(=O)O)C(=O)NCC(=O)NCCCCCCCCCCC(=O)O)NC(=O)[C@H]([C@@H](C)O)NC(=O)[C@H](C(C)C)NC(=O)[C@H](CC3CCCCC3)NC(=O)[C@H](CCN)NC(=O)[C@@H](CC(C)C)NC(=O)[C@H](CCCN)NC(=O)[C@H](CCC(=O)O)NC(=O)[C@H](Cc3ccc(-c4ccccc4)cc3)NC(=O)[C@H](C(C)C)NC2=O)c1` [Compound 1047] ({CH2CO}-[Dap]Y(Carboxymethyl)D[Phe(3-Me)]V[Bip]E[Orn][dL][Dab][Cha]VTCADG[Aun]-OH; thioether N-14), the pIC50 was 7.88.

Regarding `Cc1cccc(C[C@@H]2NC(=O)[C@H](CC(=O)O)NC(=O)[C@H](Cc3ccc(OCC(=O)O)cc3)NC(=O)[C@H](Cc3ccc(OCC(=O)O)cc3)NC(=O)CSC[C@@H](C(=O)NCC(=O)N[C@@H](CCCCN)C(=O)NCC(=O)NCCCCCCCCCCC(=O)O)NC(=O)[C@H](CO)NC(=O)[C@H](C(C)C)NC(=O)[C@H](CC3CCCCC3)NC(=O)[C@H](CCN)NC(=O)[C@@H](CC(C)C)NC(=O)[C@H](CCCN)NC(=O)[C@H](C(C)C)NC(=O)[C@H](Cc3ccc(-c4ccccc4)cc3)NC(=O)[C@H](CC(C)C)NC2=O)c1` [Compound 1073] ({CH2CO}-Y(Carboxymethyl)Y(Carboxymethyl)D[Phe(3-Me)]L[Bip]V[Orn][dL][Dab][Cha]VSCGKG[Aun]-OH; thioether N-14), the pIC50 is 7.82.

Take `Cc1cccc(C[C@@H]2NC(=O)[C@H](CC(=O)O)NC(=O)[C@H](Cc3ccc(OCC(=O)O)cc3)NC(=O)[C@H](CN)NC(=O)CSC[C@@H](C(=O)N[C@@H](C)C(=O)N[C@@H](CCC(=O)O)C(=O)NCC(=O)NCCCCCCCCCCC(=O)O)NC(=O)[C@H]([C@@H](C)O)NC(=O)[C@H](C(C)C)NC(=O)[C@H](CC3CCCCC3)NC(=O)[C@H](CCN)NC(=O)[C@@H](CC(C)C)NC(=O)[C@H](CCCN)NC(=O)[C@H](CCCNC(N)=O)NC(=O)[C@H](Cc3ccc(-c4ccccc4)cc3)NC(=O)[C@H](C(C)C)NC2=O)c1` [Compound 1000] ({CH2CO}-[Dap]Y(Carboxymethyl)D[Phe(3-Me)]V[Bip][Cit][Orn][dL][Dab][Cha]VTCAEG[Aun]-OH; thioether N-14): the pIC50 was 8.26.

Turning to `CC(C)C[C@H]1NC(=O)[C@H](CCCN)NC(=O)[C@H](C(C)C)NC(=O)[C@H](Cc2ccc(-c3ccccc3)cc2)NC(=O)[C@H](C(C)C)NC(=O)[C@H](Cc2c[nH]c3ccccc23)NC(=O)[C@H](CC(=O)O)NC(=O)[C@H](Cc2ccc(OCC(=O)O)cc2)NC(=O)[C@H](CCCCNC(=N)N)NC(=O)CSC[C@@H](C(=O)NCC(=O)NCCOCCOCC(=O)N[C@@H](CCCN)C(=O)NCCCCCCCCCCC(=O)O)NC(=O)[C@H](CCN)NC(=O)[C@H](C(C)C)NC(=O)[C@H](CC2CCCCC2)NC(=O)[C@H](CCN)NC1=O` [Compound 3197] ({CH2CO}-[hArg]Y(Carboxymethyl)DWV[Bip]V[Orn][dL][Dab][Cha]V[Dab]CG[AEEA][Orn][Aun]-OH; thioether N-14), the pIC50 was 8.11.

`Cc1cccc(C[C@@H]2NC(=O)[C@H](CC(=O)O)NC(=O)[C@H](Cc3ccc(OCC(=O)O)cc3)NC(=O)[C@H]([C@H](C)O)NC(=O)CSC[C@@H](C(=O)N[C@H](CC(N)=O)C(=O)NCCOCCOCC(=O)NCCCCCCCCCCC(=O)O)NC(=O)[C@H](CCCCN)NC(=O)[C@H](C(C)C)NC(=O)[C@H](CC3CCCCC3)NC(=O)[C@H](CCN)NC(=O)[C@@H](CC(C)C)NC(=O)[C@H](CCN)NC(=O)[C@H](C(C)C)NC(=O)[C@H](Cc3ccc(-c4ccccc4)cc3)NC(=O)[C@H](C(C)C)NC2=O)c1` [Compound 3256] ({CH2CO}-[aThr]Y(Carboxymethyl)D[Phe(3-Me)]V[Bip]V[Dab][dL][Dab][Cha]VKC[dN][AEEA][Aun]-OH; thioether N-14): the pIC50 is 8.40.

With `Cc1cccc(C[C@@H]2NC(=O)[C@H](CC(=O)O)NC(=O)[C@H](Cc3ccc(OCC(=O)O)cc3)NC(=O)[C@H](CN)NC(=O)CSC[C@@H](C(=O)N[C@H](CC(=O)NCCCCCCCCCCC(=O)O)C(N)=O)NC(=O)[C@H]([C@@H](C)O)NC(=O)[C@H](C(C)C)NC(=O)[C@H](CC3CCCCC3)NC(=O)[C@H](CCN)NC(=O)[C@@H](CC(C)C)NC(=O)[C@H](CCCN)NC(=O)[C@H](Cc3ccc(O)cc3)NC(=O)[C@H](Cc3ccc(-c4ccccc4)cc3)NC(=O)[C@H](Cc3ccc(O)cc3)NC2=O)c1` [Compound 2736] ({CH2CO}-[Dap]Y(Carboxymethyl)D[Phe(3-Me)]Y[Bip]Y[Orn][dL][Dab][Cha]VTC[dD](Aun)-NH2; thioether N-14), the pIC50 is 6.94.

For `Cc1cccc(C[C@@H]2NC(=O)[C@H](CC(=O)O)NC(=O)[C@H](Cc3ccc(OCC(=O)O)cc3)NC(=O)[C@H](Cc3ccc(OCC(=O)O)cc3)NC(=O)CSC[C@@H](C(=O)N[C@@H](CCN)C(=O)NCCCCCCCCCCC(=O)O)NC(=O)[C@H](C(C)O)NC(=O)[C@H](C(C)C)NC(=O)[C@H](CC3CCCCC3)NC(=O)[C@H](CCN)NC(=O)[C@@H](CC(C)C)NC(=O)[C@H](CCCN)NC(=O)[C@H](Cc3ccc(OCC(=O)O)cc3)NC(=O)[C@H](Cc3ccc(-c4ccccc4)cc3)NC(=O)[C@H](C(C)C)NC2=O)c1` (stereo partly drawn) [Compound 2263] ({CH2CO}-Y(Carboxymethyl)Y(Carboxymethyl)D[Phe(3-Me)]V[Bip]Y(Carboxymethyl)[Orn][dL][Dab][Cha]V[Thr(3ξ)]C[Dab][Aun]-OH; thioether N-14), the pIC50 was 7.42.

Take `CCC[C@@H]1NC(=O)CSC[C@@H](C(=O)N[C@@H](CCN)C(=O)NCCOCCOCC(=O)NCCCCCCCCCCC(=O)O)NC(=O)[C@H](CCC(=O)O)NC(=O)[C@H](CO)NC(=O)[C@H](CC2CCCCC2)NC(=O)[C@H](CCN)NC(=O)[C@@H](CC(C)C)NC(=O)[C@H](CCCN)NC(=O)[C@H](Cc2ccc(OCC(=O)O)cc2)NC(=O)[C@H](Cc2ccc(-c3ccccc3)cc2)NC(=O)[C@H](Cc2ccc(OCC(=O)O)cc2)NC(=O)[C@H](Cc2cccc(C)c2)NC(=O)[C@H](CC(=O)O)NC(=O)[C@H](Cc2ccc(OCC(=O)O)cc2)NC1=O` [Compound 3807] ({CH2CO}-[Nva]Y(Carboxymethyl)D[Phe(3-Me)]Y(Carboxymethyl)[Bip]Y(Carboxymethyl)[Orn][dL][Dab][Cha]SEC[Dab][AEEA][Aun]-OH; thioether N-14): the pIC50 is 7.69.

For the molecule `Cc1cccc(C[C@@H]2NC(=O)[C@H](CC(=O)O)NC(=O)[C@H](Cc3ccc(OCC(=O)O)cc3)NC(=O)[C@H](CN)NC(=O)CSC[C@@H](C(=O)N[C@@H](CCN)C(=O)NCCOCCOCC(=O)NCCCCCCCCCCC(=O)O)NC(=O)[C@H](CCCN)NC(=O)[C@H](C(C)C)NC(=O)[C@H](CC3CCCCC3)NC(=O)[C@H](CCN)NC(=O)[C@@H](CC(C)C)NC(=O)[C@H](CCCN)NC(=O)[C@H](Cc3ccc(CN)cc3)NC(=O)[C@H](Cc3ccc(-c4ccccc4)cc3)NC(=O)[C@H](Cc3ccc(O)cc3)NC2=O)c1` [Compound 2046] ({CH2CO}-[Dap]Y(Carboxymethyl)D[Phe(3-Me)]Y[Bip][Phe(4-CH2NH2)][Orn][dL][Dab][Cha]V[Orn]C[Dab][AEEA][Aun]-OH; thioether N-14), the pIC50 is 8.01.

Turning to `CC(C)C[C@H]1NC(=O)[C@H](CCCN)NC(=O)[C@H](Cc2ccc(O)cc2)NC(=O)[C@H](Cc2ccc(-c3ccccc3)cc2)NC(=O)[C@H](C(C)C)NC(=O)[C@H](Cc2c[nH]c3ccccc23)NC(=O)[C@H](CC(=O)O)NC(=O)[C@H](Cc2ccc(OCC(=O)O)cc2)NC(=O)[C@H](CC(N)=O)NC(=O)CSC[C@@H](C(=O)N[C@@H](CCN)C(=O)NCCCCCCCCCCC(=O)O)NC(=O)[C@H](C(C)O)NC(=O)[C@H](C(C)C)NC(=O)[C@H](CC2CCCCC2)NC(=O)[C@H](CCN)NC1=O` (stereo partly drawn) [Compound 3421] ({CH2CO}-NY(Carboxymethyl)DWV[Bip]Y[Orn][dL][Dab][Cha]V[Thr(3ξ)]C[Dab][Aun]-OH; thioether N-14), the pIC50 is 7.47.

With `Cc1cccc(C[C@@H]2NC(=O)C(CC(=O)O)NC(=O)[C@H](Cc3ccc(OCC(=O)O)cc3)NC(=O)[C@H](CN)NC(=O)CSC[C@@H](C(=O)NCCOCCOCC(=O)N[C@@H](CCCN)C(=O)NCCCCCCCCCCC(=O)O)NC(=O)[C@H]([C@@H](C)O)NC(=O)[C@H](C(C)C)NC(=O)[C@H](CC3CCCCC3)NC(=O)[C@H](CCN)NC(=O)[C@@H](CC(C)C)NC(=O)[C@H](CCCN)NC(=O)[C@H](CCCNC(N)=O)NC(=O)C(Cc3ccc(-c4ccccc4)cc3)NC(=O)[C@H](C(C)C)NC2=O)c1` (stereo partly drawn) [Compound 1178] ({CH2CO}-[Dap]Y(Carboxymethyl)[ξD][Phe(3-Me)]V[ξBip][Cit][Orn][dL][Dab][Cha]VTC[AEEA][Orn][Aun]-OH; thioether N-14), the pIC50 was 8.01.

The values are drawn from patent US20260022142A1, “MACROCYCLIC IMMUNOMODULATORS” (Bristol-Myers Squibb Company, priority 2022, published 2026).
